Reference: patent US20050038077A1, “Tablet containing 3-[(2-{[4-(hexyloxycarbonylamino-imino-methyl)-phenylamino]-methyl}-1-methyl-1H- benzimidazol-5-carbonyl)-pyridin-2-yl-amino]-propionic acid ethylester or the salts thereof” (Boehringer Ingelheim International GmbH, priority 2003, published 2005)

Assay: first clinical trials, oral administration, plasma levels
Type: in vivo
[1] = conventional tablets containing the compound of formula (I), first clinical trials

- variability of the plasma level patterns (administered as an oral solution, compared with conventional tablets): significantly lower
- malabsorption [1]: individual cases of malabsorption
- variability of plasma levels [1]: highly variable plasma levels
SMILES: CCCCCCOC(=O)NC(=N)c1ccc(NCc2nc3cc(C(=O)N(CCC(=O)OCC)c4ccccn4)ccc3n2C)cc1 [compound of formula (I), ethyl 3-[(2-{[4-(hexyloxycarbonylaminoiminomethyl)phenylamino]methyl}-1-methyl-1H-benzimidazole-5-carbonyl)pyridin-2-ylamino]propionate]
- malabsorption (administered as an oral solution): no instances of malabsorption have been observed
